Assay results reported in patent publication US12233047B2, “Pharmaceutical combination and use thereof” (ASCENTAGE PHARMA (SUZHOU) CO., LTD., priority 2019, dated 2025).
Substitutions are numbered along the chain they refer to.

Legend:
FLT3 (wild type) = target: T1, FLT3 (wild type) (Homo sapiens, UniProt P36888); assay: KINOMEscan kinase binding assay, FLT3 (wild type); conditions: lower % Ctrl = stronger binding
T1 construct: host or cells: T7 phage in E. coli (BL21-derived) or HEK-293
T1 sequence (P36888 27-993): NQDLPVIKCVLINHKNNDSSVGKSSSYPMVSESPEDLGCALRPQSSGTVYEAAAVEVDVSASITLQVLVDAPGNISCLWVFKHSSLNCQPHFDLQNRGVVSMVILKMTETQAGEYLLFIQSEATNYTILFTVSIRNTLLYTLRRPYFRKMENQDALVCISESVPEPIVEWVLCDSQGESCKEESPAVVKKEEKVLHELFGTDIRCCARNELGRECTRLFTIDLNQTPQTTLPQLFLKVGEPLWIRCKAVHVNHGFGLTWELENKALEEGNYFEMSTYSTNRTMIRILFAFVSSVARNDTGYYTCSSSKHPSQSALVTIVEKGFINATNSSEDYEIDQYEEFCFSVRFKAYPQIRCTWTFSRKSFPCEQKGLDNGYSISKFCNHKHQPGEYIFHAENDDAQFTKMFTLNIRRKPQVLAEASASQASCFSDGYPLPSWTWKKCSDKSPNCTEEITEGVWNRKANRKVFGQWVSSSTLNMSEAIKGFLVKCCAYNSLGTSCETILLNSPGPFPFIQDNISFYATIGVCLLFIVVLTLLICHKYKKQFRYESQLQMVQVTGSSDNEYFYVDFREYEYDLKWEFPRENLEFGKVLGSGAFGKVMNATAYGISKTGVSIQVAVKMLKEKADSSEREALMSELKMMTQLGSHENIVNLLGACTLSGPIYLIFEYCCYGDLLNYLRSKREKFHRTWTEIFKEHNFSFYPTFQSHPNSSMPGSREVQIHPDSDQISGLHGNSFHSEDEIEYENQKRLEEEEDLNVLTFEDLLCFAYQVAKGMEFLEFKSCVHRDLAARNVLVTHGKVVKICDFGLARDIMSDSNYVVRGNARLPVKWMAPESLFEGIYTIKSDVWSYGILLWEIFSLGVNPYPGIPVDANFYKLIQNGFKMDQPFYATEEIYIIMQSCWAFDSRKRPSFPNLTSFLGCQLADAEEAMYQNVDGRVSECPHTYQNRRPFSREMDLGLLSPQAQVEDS
Description: (§1) The kinase assay was conducted using KINOMEscan™.
(§2) Kinase-tagged T7 phage strains were grown in parallel in 24-well blocks in an E. coli host derived from the BL21 strain. E. coli were grown to log-phase and infected with T7 phage from a frozen stock (multiplicity of infection=0.4) and incubated with shaking at 32° C. until lysis (90-150 minutes). The lysates were centrifuged (6,000×g) and filtered (0.2 μm) to remove cell debris. The remaining kinases were produced in HEK-293 cells and subsequently tagged with DNA for qPCR detection. Streptavidin-coated magnetic beads were treated with biotinylated small molecule ligands for 30 minutes at room temperature to generate affinity resins for kinase assays. The liganded beads were blocked with excess biotin and washed with blocking buffer (SeaBlock (Pierce), 1% BSA, 0.05% Tween 20, 1 mM DTT) to remove unbound ligand and to reduce non-specific phage binding. Binding reactions were assembled by combining kinases, liganded affinity beads, and test compound (Compound 23) in 1× binding buffer (20% SeaBlock, 0.17×PBS, 0.05% Tween 20, 6 mM DTT). Test compound were prepared as 40× stocks in 100% DMSO and directly diluted into the assay. All reactions were performed in polypropylene 384-well plates in a final volume of 0.04 ml. […] The kinase concentration in the eluates was measured by qPCR. […]

FLT3 (D835H) = target: T2, FLT3 (D835H) (Homo sapiens, UniProt P36888, D835H); assay: KINOMEscan kinase binding assay, FLT3 (D835H)
T2 construct: host or cells: T7 phage in E. coli (BL21-derived) or HEK-293
T2 sequence (P36888 27-993 D835H): T1 sequence (P36888 27-993) with D809H
Description: as §1, §2

SMILES: Cc1ccc(C(=O)Nc2ccc(CN3CCN(C)CC3)c(C(F)(F)F)c2)cc1C#Cc1cnc2[nH]ncc2c1 [Compound 23, 3-(2-(1H-pyrazolo[3,4-b]pyridin-5-yl)ethynyl)-4-methyl-N-(4-((4-methylpiperazin-1-yl)methyl)-3-(trifluoromethyl)phenyl)benzamide]
- % Ctrl@10 nM (FLT3 (wild type); 10 nM): 2.4 % Ctrl
- % Ctrl@100 nM (FLT3 (wild type); 100 nM): 0.75 % Ctrl
- % Ctrl@10 nM (FLT3 (D835H); 10 nM): 18 % Ctrl
- % Ctrl@100 nM (FLT3 (D835H); 100 nM): 2.2 % Ctrl
